Test results taken from PMC2248166, “Quantitative peptide binding motifs for 19 human and mouse MHC class I molecules derived using positional scanning combinatorial peptide libraries” (Immunome Research, 2008).
Where a SMILES comes first, the peptide text is derived from it.

What follows are compounds tested against HLA A*3201 (Homo sapiens, UniProt P04439, A270S/D101S/D185E/E176V/E277Q/F133L/G103R/G107R/G231S/H175R/I121M/I218V/I322F/K168Q/L105A/L300P/L318F/M331R/P208A/P217A/Q94H/R106L/R138Q/S129P/T104I/T323A/T345S/V100E/V321M/V358M) (assay: biochemical).
Format: binding

Question: Which IC50 does the source give for `CC[C@H](C)[C@H](NC(=O)[C@@H](NC(=O)[C@H](Cc1ccc(O)cc1)NC(=O)[C@H](CC(C)C)NC(=O)[C@@H](N)CCCCN)[C@@H](C)O)C(=O)N[C@H](C(=O)N[C@@H](CO)C(=O)N[C@H](C(=O)N[C@@H](CC(C)C)C(=O)O)[C@@H](C)O)C(C)C` [3102.0508] (H-KLYTIVSTL-OH) here?
Answer: 7.1 nM

Question: Which IC50 does the source give for `CC[C@H](C)[C@H](NC(=O)[C@@H](NC(=O)[C@H](CC(C)C)NC(=O)[C@@H](NC(=O)[C@H](CO)NC(=O)[C@H](CO)NC(=O)[C@@H](NC(=O)[C@H](CO)NC(=O)[C@H](C)N)[C@@H](C)CC)C(C)C)[C@@H](C)O)C(=O)O` [3102.0373] (H-ASISSVLTI-OH) here?
Answer: 13 nM

Question: For `CC[C@H](C)[C@H](N)C(=O)N[C@H](C(=O)N[C@@H](Cc1ccc(O)cc1)C(=O)N[C@@H](CCC(=O)O)C(=O)N[C@@H](CCCCN)C(=O)N[C@@H](CO)C(=O)N[C@@H](CC(N)=O)C(=O)N[C@@H](CC(N)=O)C(=O)N[C@H](C(=O)O)[C@@H](C)CC)[C@@H](C)O` [3102.0422] (H-ITYEKSNNI-OH), which IC50 is on record?
Answer: 18 nM

Question: Which IC50 does the source give for `CC[C@H](C)[C@H](NC(=O)[C@H](CC(N)=O)NC(=O)[C@@H](NC(=O)[C@@H](NC(=O)[C@@H](N)CO)[C@@H](C)O)[C@@H](C)CC)C(=O)N[C@@H](CS)C(=O)N[C@@H](CC(C)C)C(=O)N1CCC[C@H]1C(=O)N[C@@H](Cc1ccc(O)cc1)C(=O)O` [3102.0390] (H-STINICLPY-OH) here?
Answer: 32 nM

Question: For `CC[C@H](C)[C@H](NC(=O)[C@@H](NC(=O)[C@H](CC(C)C)NC(=O)[C@@H](NC(=O)[C@@H](NC(=O)[C@H](CO)NC(=O)[C@H](CC(C)C)NC(=O)[C@H](CCSC)NC(=O)[C@@H](N)[C@@H](C)O)[C@@H](C)CC)[C@@H](C)CC)C(C)C)C(=O)O` [3102.0409] (H-TMLSIILVI-OH), which IC50 is on record?
Answer: 16 nM

Question: For `CC[C@H](C)[C@H](NC(=O)[C@@H](NC(=O)[C@@H](N)CCCCN)[C@@H](C)O)C(=O)N[C@@H](CC(N)=O)C(=O)N[C@@H](Cc1ccc(O)cc1)C(=O)N[C@@H](CO)C(=O)N[C@@H](Cc1ccccc1)C(=O)N[C@@H](Cc1ccccc1)C(=O)N[C@@H](CC(C)C)C(=O)O` [3102.0472] (H-KTINYSFFL-OH), which IC50 is on record?
Answer: 1 nM

Question: How did the IC50 turn out when `CC[C@H](C)[C@H](NC(=O)[C@H](CCCCN)NC(=O)[C@H](Cc1ccccc1)NC(=O)[C@H](CC(N)=O)NC(=O)[C@H](CC(N)=O)NC(=O)[C@H](Cc1ccccc1)NC(=O)[C@H](CC(C)C)NC(=O)[C@@H](NC(=O)[C@@H](N)CCCNC(=N)N)C(C)C)C(=O)O` [3102.0429] (H-RVLFNNFKI-OH) was run?
Answer: 0.89 nM

Question: With `CC[C@H](C)[C@H](NC(=O)[C@H](CC(C)C)NC(=O)[C@@H](NC(=O)[C@H](CC(N)=O)NC(=O)[C@H](CC(N)=O)NC(=O)[C@H](CO)NC(=O)[C@H](Cc1ccccc1)NC(=O)[C@H](CCSC)NC(=O)[C@@H](N)CCCCN)C(C)C)C(=O)O` [3102.0427] (H-KMFSNNVLI-OH) as the compound, how does the IC50 read?
Answer: 1.1 nM

Question: How did the IC50 turn out when `CC[C@H](C)[C@H](NC(=O)[C@H](Cc1c[nH]cn1)NC(=O)[C@@H](NC(=O)[C@H](CCSC)NC(=O)[C@H](CCSC)NC(=O)[C@H](CCCCN)NC(=O)[C@H](CCSC)NC(=O)[C@@H](NC(=O)[C@@H](N)CCSC)[C@@H](C)O)C(C)C)C(=O)O` [3102.0378] (H-MTMKMMVHI-OH) was run?
Answer: 4.8 nM

Question: With `CSCC[C@H](NC(=O)[C@H](C)NC(=O)[C@@H](N)CC(C)C)C(=O)N[C@@H](CC(N)=O)C(=O)N[C@@H](CO)C(=O)N[C@H](C(=O)N[C@@H](Cc1ccccc1)C(=O)N[C@H](C(=O)N[C@@H](Cc1ccccc1)C(=O)O)[C@@H](C)O)C(C)C` [3102.0426] (H-LAMNSVFTF-OH) as the compound, how does the IC50 read?
Answer: 16 nM

Question: For `CSCC[C@H](NC(=O)[C@@H](N)C(C)C)C(=O)N[C@@H](Cc1ccc(O)cc1)C(=O)N[C@@H](C)C(=O)N[C@@H](Cc1ccccc1)C(=O)N[C@H](C(=O)N[C@H](C(=O)N1CCC[C@H]1C(=O)N[C@@H](CC(C)C)C(=O)O)[C@@H](C)O)[C@@H](C)O` [3102.0516] (H-VMYAFTTPL-OH), which IC50 is on record?
Answer: 0.29 nM

Question: With `CC[C@H](C)[C@H](NC(=O)[C@H](CCC(N)=O)NC(=O)[C@H](CCC(=O)O)NC(=O)[C@H](CC(=O)O)NC(=O)[C@@H](NC(=O)[C@@H](N)CCSC)[C@@H](C)O)C(=O)N[C@@H](Cc1ccc(O)cc1)C(=O)N[C@@H](C)C(=O)N[C@@H](Cc1ccccc1)C(=O)O` [3102.0453] (H-MTDEQIYAF-OH) as the compound, how does the IC50 read?
Answer: 18 nM

Question: For `CC[C@H](C)[C@H](NC(=O)[C@H](CO)NC(=O)[C@H](CCSC)NC(=O)[C@H](CC(C)C)NC(=O)[C@@H](N)CCCNC(=N)N)C(=O)N[C@@H](CC(N)=O)C(=O)N[C@@H](CCCNC(=N)N)C(=O)NCC(=O)N[C@@H](Cc1ccccc1)C(=O)O` [3102.0465] (H-RLMSINRGF-OH), which IC50 is on record?
Answer: 3 nM

Question: Which IC50 does the source give for `CC[C@H](C)[C@H](NC(=O)[C@H](CCCCN)NC(=O)[C@H](CC(C)C)NC(=O)[C@@H](NC(=O)[C@H](Cc1ccc(O)cc1)NC(=O)[C@H](CC(N)=O)NC(=O)[C@H](CC(N)=O)NC(=O)[C@H](CC(C)C)NC(=O)[C@@H](N)CC(C)C)[C@@H](C)O)C(=O)O` [3102.0521] (H-LLNNYTLKI-OH) here?
Answer: 25 nM

Question: Which IC50 does the source give for `C[C@@H](O)[C@H](NC(=O)[C@H](CCCNC(=N)N)NC(=O)[C@H](CC(N)=O)NC(=O)[C@H](Cc1ccccc1)NC(=O)[C@@H](NC(=O)[C@@H](N)CCCNC(=N)N)[C@@H](C)O)C(=O)N[C@@H](Cc1c[nH]cn1)C(=O)N[C@@H](Cc1ccc(O)cc1)C(=O)N[C@@H](Cc1c[nH]c2ccccc12)C(=O)O` [3102.0309] (H-RTFNRTHYW-OH) here?
Answer: 0.24 nM

Question: With `CC[C@H](C)[C@H](N)C(=O)N[C@H](C(=O)N[C@@H](Cc1ccccc1)C(=O)N[C@@H](Cc1ccccc1)C(=O)N[C@H](C(=O)N[C@H](C(=O)N[C@@H](CC(C)C)C(=O)N[C@H](C(=O)N[C@@H](CC(C)C)C(=O)O)[C@@H](C)CC)C(C)C)[C@@H](C)CC)[C@@H](C)CC` [3102.0436] (H-IIFFIVLIL-OH) as the compound, how does the IC50 read?
Answer: 12 nM

Question: `CC[C@H](C)[C@H](NC(=O)CNC(=O)[C@H](CC(N)=O)NC(=O)[C@H](CO)NC(=O)[C@@H](NC(=O)CNC(=O)[C@H](CC(N)=O)NC(=O)[C@@H](NC(=O)CN)[C@@H](C)O)[C@@H](C)CC)C(=O)O` [3102.0439] (H-GTNGISNGI-OH) was tested. Which IC50 did it give?
Answer: 20 nM

Question: With `CC[C@H](C)[C@H](NC(=O)[C@H](CC(C)C)NC(=O)[C@H](Cc1c[nH]cn1)NC(=O)[C@@H](N)CCCNC(=N)N)C(=O)N[C@@H](Cc1ccccc1)C(=O)N[C@@H](CO)C(=O)N[C@@H](Cc1ccc(O)cc1)C(=O)N[C@@H](C)C(=O)N[C@@H](Cc1ccccc1)C(=O)O` [3102.0393] (H-RHLIFSYAF-OH) as the compound, how does the IC50 read?
Answer: 14 nM

Question: Which IC50 does the source give for `CC[C@H](C)[C@H](NC(=O)[C@H](CCC(=O)O)NC(=O)[C@H](Cc1ccccc1)NC(=O)[C@H](CC(N)=O)NC(=O)[C@@H]1CCCN1C(=O)[C@H](CC(N)=O)NC(=O)[C@H](Cc1ccccc1)NC(=O)[C@@H](NC(=O)[C@@H](N)CC(C)C)[C@@H](C)O)C(=O)O` [3102.0377] (H-LTFNPNFEI-OH) here?
Answer: 5.2 nM

Question: `CC(C)C[C@H](N)C(=O)N[C@H](C(=O)NCC(=O)N[C@H](C(=O)N[C@@H](Cc1ccccc1)C(=O)N[C@H](C(=O)N[C@H](C(=O)N[C@@H](C)C(=O)N[C@@H](Cc1ccccc1)C(=O)O)[C@@H](C)O)C(C)C)[C@@H](C)O)[C@@H](C)O` [3102.0515] (H-LTGTFVTAF-OH) was tested. Which IC50 did it give?
Answer: 8.8 nM

Question: With `CC[C@H](C)[C@H](NC(=O)[C@H](CCCCN)NC(=O)[C@H](CCC(N)=O)NC(=O)[C@H](C)NC(=O)[C@@H](NC(=O)CNC(=O)[C@H](Cc1ccc(O)cc1)NC(=O)[C@H](CC(C)C)NC(=O)[C@@H](N)CCSC)[C@@H](C)CC)C(=O)O` [3102.0335] (H-MLYGIAQKI-OH) as the compound, how does the IC50 read?
Answer: 12 nM

Question: Which IC50 does the source give for `CC[C@H](C)[C@H](NC(=O)[C@@H]1CCCN1C(=O)[C@H](Cc1c[nH]cn1)NC(=O)[C@H](CC(N)=O)NC(=O)[C@@H](NC(=O)[C@H](CC(=O)O)NC(=O)[C@H](CCSC)NC(=O)[C@@H](NC(=O)[C@@H](N)CO)[C@@H](C)O)C(C)C)C(=O)O` [3102.0467] (H-STMDVNHPI-OH) here?
Answer: 7.4 nM

Question: For `CC[C@H](C)[C@H](NC(=O)[C@@H](NC(=O)[C@H](CC(N)=O)NC(=O)[C@H](CO)NC(=O)[C@H](CC(N)=O)NC(=O)[C@H](C)NC(=O)[C@@H](NC(=O)[C@@H](NC(=O)[C@@H](N)CO)[C@@H](C)O)[C@@H](C)CC)[C@@H](C)CC)C(=O)O` [3102.0451] (H-STIANSNII-OH), which IC50 is on record?
Answer: 14 nM

Question: With `CC[C@H](C)[C@H](NC(=O)[C@H](CO)NC(=O)[C@@H](NC(=O)CNC(=O)[C@H](CC(C)C)NC(=O)[C@@H](NC(=O)[C@H](CO)NC(=O)[C@H](CCSC)NC(=O)[C@@H](N)CCCCN)[C@@H](C)CC)C(C)C)C(=O)O` [3102.0388] (H-KMSILGVSI-OH) as the compound, how does the IC50 read?
Answer: 2.4 nM

Question: How did the IC50 turn out when `CC[C@H](C)[C@H](N)C(=O)N[C@H](C(=O)N[C@@H](Cc1ccc(O)cc1)C(=O)N1CCC[C@H]1C(=O)N[C@@H](CCCCN)C(=O)N[C@@H](C)C(=O)N[C@@H](CC(C)C)C(=O)N[C@H](C(=O)N[C@@H](Cc1ccccc1)C(=O)O)C(C)C)[C@@H](C)O` [3102.0405] (H-ITYPKALVF-OH) was run?
Answer: 3 nM

Question: How did the IC50 turn out when `CC[C@H](C)[C@H](NC(=O)[C@H](CCC(=O)O)NC(=O)[C@H](CS)NC(=O)[C@@H](NC(=O)[C@@H](N)CO)[C@@H](C)CC)C(=O)N[C@H](C(=O)N[C@@H](Cc1ccc(O)cc1)C(=O)N[C@@H](CO)C(=O)N[C@@H](Cc1ccccc1)C(=O)O)C(C)C` [3102.0440] (H-SICEIVYSF-OH) was run?
Answer: 0.35 nM

Question: Which IC50 does the source give for `CC[C@H](C)[C@H](NC(=O)[C@H](CCSC)NC(=O)[C@@H](NC(=O)[C@H](CO)NC(=O)[C@H](CO)NC(=O)[C@H](Cc1ccc(O)cc1)NC(=O)[C@H](CO)NC(=O)[C@H](CCSC)NC(=O)[C@@H](N)CCCCN)C(C)C)C(=O)O` [3102.0497] (H-KMSYSSVMI-OH) here?
Answer: 14 nM

Question: Which IC50 does the source give for `CC[C@H](C)[C@H](NC(=O)[C@@H](NC(=O)[C@H](CCCNC(=N)N)NC(=O)[C@@H]1CCCN1C(=O)[C@H](Cc1ccccc1)NC(=O)[C@H](Cc1ccccc1)NC(=O)[C@H](CCSC)NC(=O)[C@@H](NC(=O)[C@H](C)N)[C@@H](C)CC)[C@@H](C)O)C(=O)O` [3102.0423] (H-AIMFFPRTI-OH) here?
Answer: 1.1 nM

Question: `CC[C@H](C)[C@H](NC(=O)[C@H](CO)NC(=O)[C@H](CC(C)C)NC(=O)[C@@H](NC(=O)[C@H](Cc1ccccc1)NC(=O)[C@H](CC(N)=O)NC(=O)[C@H](CCC(=O)O)NC(=O)[C@@H](NC(=O)[C@@H](N)CCCNC(=N)N)[C@@H](C)O)C(C)C)C(=O)O` [3102.0421] (H-RTENFVLSI-OH) was tested. Which IC50 did it give?
Answer: 1.6 nM
